The values below come from ChEMBL document CHEMBL1201862, “PubChem BioAssay data set” (2004).

The structures appear in SMILES notation. Structures can show the parent of a compound that is named as a salt. Calls of active or inactive are those of the source. For most assays here, no stated cut-off is given here; in the data, actives have a measured EC50 and inactives only a lower limit.

Experiment [1] in a line: NIH-3T3 fibroblast cytotoxicity, dose response, cytotoxicity control, cell-based, fluorescence, Alamar Blue, secondary assay (AID 2327).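 Further: NIH-3T3 mouse fibroblasts cultured with fluconazole at 8 µg/mL.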 The format is functional. A general note: Alamar Blue is a resazurin reagent that responds to reducing activity.
Experiment [2] in a line: fluconazole-exposed Candida albicans growth modulators – fluorescence, retest, confirmation (AID 2467). Type of experiment: functional, cell-based.
Experiment [3] is described as follows: reduction of Shn3 3'UTR-driven luciferase in osteoblasts – cell-based, Clone20 osteoblasts, firefly luciferase, cherry-picked, dose response (AID 624132).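 Further: firefly luciferase luminescence from reporter carrying the Shn3 3'UTR in osteoblasts.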 The format is functional.
Experiment [4] is described as follows: loss of viability in HepG2 cells – cell-based, CellTiter-Glo, cherry-picked, cytotoxicity control for Shn3 inhibitor project, dose response (AID 624134). Type of experiment: functional.
Experiment [5] in a line: non-specific 3'UTR reporter inhibition in Clone20-Shn3RL – cell-based, Renilla luciferase, cherry-picked, counter-screen for Shn3 inhibitor project, dose response (AID 624133). The format is functional.
Experiment [6] concerns Streptococcus sp. 'group A'. Nature of the experiment: Streptococcus pyogenes SK(-)GAS viability under kanamycin – luminescence, BacTiterGlo, confirmation, counter-screen for streptokinase expression inhibitor project, dose response (AID 1900). Type of experiment: functional, organism-based.
The target of a further experiment is T1, Streptokinase A (Streptococcus pyogenes serotype M1, UniProt P10520).
T1 sequence (P10520 whole entry): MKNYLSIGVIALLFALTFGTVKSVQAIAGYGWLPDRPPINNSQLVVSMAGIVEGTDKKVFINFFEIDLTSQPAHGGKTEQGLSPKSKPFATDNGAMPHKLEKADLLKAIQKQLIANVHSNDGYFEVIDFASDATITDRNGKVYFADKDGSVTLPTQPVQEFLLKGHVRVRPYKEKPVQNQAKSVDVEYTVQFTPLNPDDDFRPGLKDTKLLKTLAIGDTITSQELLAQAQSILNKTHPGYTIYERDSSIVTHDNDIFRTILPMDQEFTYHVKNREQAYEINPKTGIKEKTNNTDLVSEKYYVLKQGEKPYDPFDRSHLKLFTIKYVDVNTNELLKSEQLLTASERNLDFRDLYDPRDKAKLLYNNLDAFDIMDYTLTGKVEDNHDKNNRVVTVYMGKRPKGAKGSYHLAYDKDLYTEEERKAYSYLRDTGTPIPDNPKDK
Nature of the experiment: viability-normalized secreted streptokinase activity reduction – plasminogen activation absorbance, OD405, dose response (AID 1914).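 Further: secreted streptokinase activity via plasminogen activation per viability signal from cell pellet.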 Type of experiment: functional, Streptococcus pyogenes M1 GAS.

In another experiment the test system is Streptococcus. Briefly: GAS UMAA2166 growth inhibition – luminescence, BacTiterGlo, counter-screen for streptokinase expression inhibitor project, dose response (AID 1915).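 Further: potency for reduction of bacterial viability or growth.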 The format is functional, organism-based. A general note: A counterscreen serves to expose hits that act by an unwanted route or on another target.
For experiment [7], the target named is T2, Corticotropin-releasing factor receptor 2/Corticotropin-releasing factor-binding protein (Homo sapiens, UniProt P24387+Q13324).
T2 sequence (Q13324 whole entry): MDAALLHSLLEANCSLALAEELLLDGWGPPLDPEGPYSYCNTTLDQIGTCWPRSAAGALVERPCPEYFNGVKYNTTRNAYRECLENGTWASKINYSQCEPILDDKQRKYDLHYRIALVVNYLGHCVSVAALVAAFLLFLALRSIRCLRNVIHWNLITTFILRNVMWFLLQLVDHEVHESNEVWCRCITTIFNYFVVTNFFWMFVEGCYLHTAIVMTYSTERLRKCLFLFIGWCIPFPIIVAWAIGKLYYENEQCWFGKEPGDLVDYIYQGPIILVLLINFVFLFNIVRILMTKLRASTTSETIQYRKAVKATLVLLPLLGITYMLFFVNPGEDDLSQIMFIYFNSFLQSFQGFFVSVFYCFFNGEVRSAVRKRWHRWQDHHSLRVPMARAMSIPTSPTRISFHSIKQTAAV
T2 sequence (P24387 whole entry): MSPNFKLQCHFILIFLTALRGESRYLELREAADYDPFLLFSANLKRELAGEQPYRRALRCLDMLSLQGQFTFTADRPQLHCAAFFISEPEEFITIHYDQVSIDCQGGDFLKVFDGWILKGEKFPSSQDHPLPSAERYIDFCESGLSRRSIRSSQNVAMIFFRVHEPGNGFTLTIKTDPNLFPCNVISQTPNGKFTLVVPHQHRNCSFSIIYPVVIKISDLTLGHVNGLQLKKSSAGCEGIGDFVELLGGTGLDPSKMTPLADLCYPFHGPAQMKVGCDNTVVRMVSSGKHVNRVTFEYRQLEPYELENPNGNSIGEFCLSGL
Nature of the experiment: activators of CRF receptor 2 with binding protein – uHTS hits, confirmation (AID 602473). The format is functional. Particulars: read-out: EC50_Mean.

As to `CCOC(=O)c1cc(C#N)c(N2CCN(c3ccc(OC)cc3)CC2)nc1O`, the EC50 in experiment [1] was > 150 µM (inconclusive); in experiment [2] it was 0.046 µM (active).

On to `O=C(NCc1cccnc1)c1ccc(-c2ccc(F)c(F)c2)c2ccoc12`, for which the AC50 was 3.48 µM (active) in experiment [3], 6.48 µM (active) in experiment [4] and 4.19 µM (active) in [5].

On to `CCOC(=O)c1ccc(NC(=O)c2sc3nc4n(c(=O)c3c2C)CCC4)cc1`, for which the EC50 in experiment [6] was 1.48 µM (active); at Streptokinase A, > 150 µM (not active); in the experiment with Streptococcus, 20.2 µM (active).

In the case of `CC12CC(O)C3c4ccc(O)cc4CCC3C1CCC2=O` (stereo not drawn), the AC50 in experiment [3] is > 70 µM (inactive); in experiment [5] it was 26.8 µM (active).

For `O=[N+]([O-])c1cc2c(c(CSc3nnc(Nc4ccccc4)s3)c1)OCOC2`, the AC50 is 3.62 µM (active) in [3], 55.6 µM (active) in [4] and 9.43 µM (active) in experiment [5].

Regarding `CCc1nc2c3cnn(-c4cc(Cl)ccc4C)c3ncn2n1`, the EC50 (in experiment [6]; at Streptokinase A; with Streptococcus) was > 150 µM (not active) each time.

With `COc1cc(OC)cc(C(=O)Nc2nnc(NC(=S)Nc3ccccc3)s2)c1`, the EC50 on Streptokinase A was > 150 µM (not active).

In the case of `CN(C/C=C/C#CC(C)(C)C)Cc1cccc2ccccc12` [TERBINAFINE HYDROCHLORIDE], the EC50 in [1] is > 160 µM (inactive); in experiment [2] it was 2.94 µM (inconclusive).

For `Cc1ccc(CN2CC(C(=O)Nc3nnc(SCc4c(Cl)cccc4Cl)s3)CC2=O)cc1` (stereo not drawn), the EC50 in experiment [6] is 4.07 µM (active); at Streptokinase A it was 5.57 µM (active); with Streptococcus, 37.2 µM (active).

As for `Cc1csc(NC(=O)c2c(O)c3c(n(CC(C)C)c2=O)CCCC3)n1`, the values for the EC50 (in experiment [6]; on Streptokinase A; with Streptococcus) were 11 µM (active), > 150 µM (not active) and 17.3 µM (active), respectively.

`COc1ccc(NP(=O)(Oc2ccc(Cl)cc2)Oc2ccc(Cl)cc2)cc1OC`: the EC50 was 12.4 µM (active) in experiment [6], 21.1 µM (active) on Streptokinase A and 16.3 µM (active) with Streptococcus.

As to `Cc1cccc(C)c1OC1(c2ccccc2)OC(=O)c2ccccc21` (stereo not drawn), the results for the EC50 (in [6]; at Streptokinase A; with Streptococcus) were 18.4 µM (active), 12.2 µM (active) and > 150 µM (not active), respectively.

Turning to `CCC1(c2ccc(F)cc2)NC(=O)N(CC(=O)N2CCc3ccccc32)C1=O` (stereo not drawn), in [7], the EC50 was 11 µM (active).

On to `O=C(NCCNC(=O)C(c1ccccc1)c1ccccc1)c1ccco1`, for which the values for the EC50 in experiment [1] and in experiment [2] were > 150 µM (inactive) and > 38 µM (not active), respectively.

Consider `COCCCNC(=S)NNC(=S)Nc1cccc(Cl)c1`, for which, on Streptokinase A, the EC50 is on record as > 150 µM (not active).

In the case of `O=C(N/N=C/c1cc(Br)c(Br)o1)c1ccc2c(c1)OCCO2`, the EC50 in [1] was > 150 µM (inconclusive); in experiment [2], 3.24 µM (active).

Turning to `CCCCCCCCCc1nc2sc3c(c2c(=O)n1NC(=O)c1ccc([N+](=O)[O-])cc1)CC(C)(C)OC3`, the EC50 in experiment [6] is 3.71 µM (active); at Streptokinase A, 2.17 µM (active); in the experiment with Streptococcus, 39.8 µM (active).

For the compound `COc1ccc2nc(N3C(=O)CNC3=S)sc2c1`, the EC50 was 3.47 µM (active) in experiment [6], > 150 µM (not active) at Streptokinase A and > 150 µM (not active) in the experiment with Streptococcus.

What is called AC50 is the concentration giving half of the maximal activity seen.
